Results as given in ChEMBL document CHEMBL4251601 (Eur J Med Chem, 2018).

Assays:
[1] = molecular target: Beta-adrenergic receptor kinase 1 (Homo sapiens) (UniProt P25098); assay: Inhibition of recombinant human full length His-tagged GRK2 expressed in baculovirus expression system at 1 uM by Z'-Lyte assay relative to control
[2] = molecular target: ALK tyrosine kinase receptor (Homo sapiens) (UniProt Q9UM73); assay: Inhibition of recombinant N-terminal GST-tagged human ALK cytoplasmic domain (1058 to 1620 residues) expressed in baculovirus expression system at 0.1 uM by TR-FRET assay relative to control
[3] = molecular target: Insulin receptor (Homo sapiens) (UniProt P06213); assay: Inhibition of recombinant human GST-tagged INSR cytoplasmic domain expressed in baculovirus expression system at 0.1 uM by Z'-Lyte assay relative to control
[4] = molecular target: Tyrosine-protein kinase ITK/TSK (Homo sapiens) (UniProt Q08881); assay: Inhibition of recombinant full length human GST-tagged ITK expressed in baculovirus expression system at 0.1 uM by TR-FRET assay relative to control
[5] = molecular target: Serine/threonine-protein kinase PAK 2 (Homo sapiens) (UniProt Q13177); assay: Inhibition of recombinant human full length GST-tagged PAK2 expressed in baculovirus expression system at 0.1 uM by Z'-Lyte assay relative to control
[6] = AUC (0 to 48 hrs) in CD-1 mouse brain at 10 mg/kg, po administered as single dose by LC-MS/MS analysis; type: ADME, organism-based; design: dose 10 mg/kg, time < 48 hr, route oral; conditions: in vivo
[7] = molecular target: Serine/threonine-protein kinase MARK1 (Homo sapiens) (UniProt Q9P0L2); assay: Inhibition of recombinant human full length GST-tagged MARK1 expressed in baculovirus expression system at 0.1 uM by Z'-Lyte assay relative to control
[8] = Oral bioavailability in ICR mouse at 5 mg/kg administered as single dose by LC-MS/MS analysis; type: ADME, organism-based; conditions: in vivo
[9] = molecular target: T1, PI3-kinase p110-alpha/p85-alpha (Homo sapiens) (UniProt P27986+P42336); assay: Inhibition of recombinant full-length human N-terminal His6-tagged p110alpha/p85alpha expressed in baculovirus infected Sf21 cells at 0.1 uM by ADP-Glo assay relative to control
[10] = molecular target: G protein-coupled receptor kinase 3 (Homo sapiens) (UniProt P35626); assay: Inhibition of recombinant human full length GST-tagged GRK3 expressed in baculovirus expression system at 1 uM by Z'-Lyte assay relative to control
[11] = molecular target: Casein kinase I isoform gamma-1 (Homo sapiens) (UniProt Q9HCP0); assay: Inhibition of recombinant full length human GST-tagged CK1gamma1 expressed in baculovirus expression system at 1 uM by Z'-Lyte assay relative to control
[12] = molecular target: Mitogen-activated protein kinase 1 (Homo sapiens) (UniProt P28482); assay: Inhibition of recombinant human full length GST-tagged ERK2 expressed in Escherichia coli at 0.1 uM by Z'-Lyte assay relative to control
[13] = molecular target: Serine/threonine-protein kinase MRCK beta (Homo sapiens) (UniProt Q9Y5S2); assay: Inhibition of recombinant human His-tagged CDC42 BPB expressed in baculovirus expression system at 1 uM by Z'-Lyte assay relative to control
[14] = molecular target: Hepatocyte growth factor receptor (Homo sapiens) (UniProt P08581); assay: Inhibition of recombinant human His-tagged c-Met cytoplasmic domain expressed in baculovirus expression system at 1 uM by Z'-Lyte assay relative to control
[15] = AUC (0 to 24 hrs) in Sprague-Dawley rat at 2 mg/kg, iv administered as single dose by LC-MS/MS analysis; type: ADME, organism-based; design: dose 2 mg/kg, time < 24 hr, route intravenous; conditions: in vivo
[16] = molecular target: Aurora kinase A (Homo sapiens) (UniProt O14965); assay: Inhibition of recombinant full length human His-tagged AURKA expressed in baculovirus expression system at 1 uM by Z'-Lyte assay relative to control
[17] = molecular target: Glycogen synthase kinase-3 beta (Homo sapiens) (UniProt P49841); assay: Inhibition of recombinant human full length His-tagged GSK3beta expressed in baculovirus expression system at 0.1 uM by Z'-Lyte assay relative to control
[18] = molecular target: Serine/threonine-protein kinase Chk1 (Homo sapiens) (UniProt O14757); assay: Inhibition of recombinant full length human His-tagged CHK1 expressed in baculovirus expression system at 1 uM by Z'-Lyte assay relative to control
[19] = molecular target: Tyrosine-protein kinase receptor TYRO3 (Homo sapiens) (UniProt Q06418); assay: Inhibition of recombinant human GST-tagged TYRO3 cytoplasmic domain (451 to 890 residues) expressed in baculovirus expression system at 1 uM by Z'-Lyte assay relative to control
[20] = molecular target: Serine/threonine-protein kinase 26 (Homo sapiens) (UniProt Q9P289); assay: Inhibition of recombinant human full length GST-tagged MST4 expressed in baculovirus expression system at 0.1 uM by Z'-Lyte assay relative to control
CDK6/cyclin D3 = CDK6/cyclin D3 (Homo sapiens, UniProt Q00534); assay: Inhibition of CDK6/Cyclin-D3 (unknown origin) using histoneH1 as substrate after 90 mins by ADP-Glo assay; type: protein-complex assay
[21] = molecular target: G protein-coupled receptor kinase 3 (Homo sapiens) (UniProt P35626); assay: Inhibition of recombinant human full length GST-tagged GRK3 expressed in baculovirus expression system at 0.1 uM by Z'-Lyte assay relative to control
[22] = molecular target: Serine/threonine-protein kinase 10 (Homo sapiens) (UniProt O94804); assay: Inhibition of LOK1 (unknown origin) at 0.1 uM by Z'-Lyte assay relative to control
[23] = molecular target: T1, PI3-kinase p110-alpha/p85-alpha (Homo sapiens); assay: Inhibition of recombinant full-length human N-terminal His6-tagged p110alpha/p85alpha expressed in baculovirus infected Sf21 cells at 1 uM by ADP-Glo assay relative to control
[24] = molecular target: Receptor tyrosine-protein kinase erbB-2 (Homo sapiens) (UniProt P04626); assay: Inhibition of recombinant human His-tagged ERBB2 cytoplasmic domain expressed in baculovirus expression system at 1 uM by Z'-Lyte assay relative to control
[25] = molecular target: Beta-adrenergic receptor kinase 1 (Homo sapiens) (UniProt P25098); assay: Inhibition of recombinant human full length His-tagged GRK2 expressed in baculovirus expression system at 0.1 uM by Z'-Lyte assay relative to control
[26] = Half life in ICR mouse at 2 mg/kg, iv administered as single dose by LC-MS/MS analysis; type: ADME, organism-based; conditions: in vivo
[27] = molecular target: Dual specificity protein kinase CLK1 (Homo sapiens) (UniProt P49759); assay: Inhibition of recombinant human GST-tagged CLK1 expressed in Escherichia coli at 1 uM by Z'-Lyte assay relative to control
[28] = molecular target: Mitogen-activated protein kinase 1 (Homo sapiens) (UniProt P28482); assay: Inhibition of recombinant human full length GST-tagged ERK2 expressed in Escherichia coli at 1 uM by Z'-Lyte assay relative to control
[29] = molecular target: CDK6/cyclin D3 (Homo sapiens) (UniProt P30281+Q00534); assay: Inhibition of recombinant full length human GST-tagged […] expressed in baculovirus expression system at 0.1 uM by TR-FRET assay relative to control
[30] = test system: Epidermal growth factor receptor (Homo sapiens), P00533 [UNDEFINED MUTATION]; assay: Inhibition of recombinant human EGFR d746 to 750 deletion/T790M mutant at 0.1 uM by TR-FRET assay relative to control

Sequence of Mitogen-activated protein kinase 1 (Homo sapiens) (P28482 whole entry): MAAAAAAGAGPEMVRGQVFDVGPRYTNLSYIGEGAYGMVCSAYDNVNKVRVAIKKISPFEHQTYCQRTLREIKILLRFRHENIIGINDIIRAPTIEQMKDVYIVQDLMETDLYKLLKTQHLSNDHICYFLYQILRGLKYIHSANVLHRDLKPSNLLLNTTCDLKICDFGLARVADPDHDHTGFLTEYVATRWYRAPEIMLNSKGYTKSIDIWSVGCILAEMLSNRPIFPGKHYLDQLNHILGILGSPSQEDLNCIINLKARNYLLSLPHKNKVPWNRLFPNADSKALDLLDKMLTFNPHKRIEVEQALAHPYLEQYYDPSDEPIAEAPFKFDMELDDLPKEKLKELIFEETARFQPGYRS
Sequence of G protein-coupled receptor kinase 3 (Homo sapiens) (P35626 whole entry, canonical isoform): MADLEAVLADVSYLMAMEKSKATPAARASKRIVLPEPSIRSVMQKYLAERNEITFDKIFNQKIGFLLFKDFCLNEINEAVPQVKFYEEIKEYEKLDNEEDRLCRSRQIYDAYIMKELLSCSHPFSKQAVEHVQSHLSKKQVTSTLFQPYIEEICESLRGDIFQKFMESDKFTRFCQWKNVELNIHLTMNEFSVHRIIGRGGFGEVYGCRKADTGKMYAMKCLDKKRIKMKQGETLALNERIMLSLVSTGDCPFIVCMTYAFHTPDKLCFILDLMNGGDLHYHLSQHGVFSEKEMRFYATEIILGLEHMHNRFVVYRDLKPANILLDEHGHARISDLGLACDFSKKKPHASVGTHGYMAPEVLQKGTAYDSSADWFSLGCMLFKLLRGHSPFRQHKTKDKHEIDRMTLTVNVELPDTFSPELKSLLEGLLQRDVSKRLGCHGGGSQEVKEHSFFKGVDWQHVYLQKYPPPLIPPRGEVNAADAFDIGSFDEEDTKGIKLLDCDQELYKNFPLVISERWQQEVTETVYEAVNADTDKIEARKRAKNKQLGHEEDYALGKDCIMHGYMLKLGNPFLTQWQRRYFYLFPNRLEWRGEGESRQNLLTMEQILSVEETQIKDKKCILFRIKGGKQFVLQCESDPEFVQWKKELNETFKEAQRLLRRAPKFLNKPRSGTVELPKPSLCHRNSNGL
Sequence of Beta-adrenergic receptor kinase 1 (Homo sapiens) (P25098 whole entry, the tested form may be a part): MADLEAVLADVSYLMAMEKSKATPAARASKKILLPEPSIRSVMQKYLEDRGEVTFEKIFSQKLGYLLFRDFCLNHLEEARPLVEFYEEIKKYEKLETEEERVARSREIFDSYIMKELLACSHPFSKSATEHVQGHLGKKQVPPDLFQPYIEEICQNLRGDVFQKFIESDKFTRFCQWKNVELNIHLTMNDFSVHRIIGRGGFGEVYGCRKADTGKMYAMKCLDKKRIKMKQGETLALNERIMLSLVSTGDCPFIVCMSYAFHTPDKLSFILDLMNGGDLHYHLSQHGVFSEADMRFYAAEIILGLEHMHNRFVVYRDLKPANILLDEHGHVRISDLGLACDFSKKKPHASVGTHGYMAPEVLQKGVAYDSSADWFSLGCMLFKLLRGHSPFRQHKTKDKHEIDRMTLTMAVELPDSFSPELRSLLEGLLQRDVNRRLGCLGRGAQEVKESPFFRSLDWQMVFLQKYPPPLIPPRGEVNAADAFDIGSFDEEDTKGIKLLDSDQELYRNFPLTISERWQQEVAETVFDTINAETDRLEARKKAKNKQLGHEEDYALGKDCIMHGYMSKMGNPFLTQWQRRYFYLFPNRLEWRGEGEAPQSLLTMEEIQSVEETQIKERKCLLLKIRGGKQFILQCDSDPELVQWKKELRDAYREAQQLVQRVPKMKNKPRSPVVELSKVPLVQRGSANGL
Sequence of Serine/threonine-protein kinase Chk1 (Homo sapiens) (O14757 whole entry, the tested form may be a part): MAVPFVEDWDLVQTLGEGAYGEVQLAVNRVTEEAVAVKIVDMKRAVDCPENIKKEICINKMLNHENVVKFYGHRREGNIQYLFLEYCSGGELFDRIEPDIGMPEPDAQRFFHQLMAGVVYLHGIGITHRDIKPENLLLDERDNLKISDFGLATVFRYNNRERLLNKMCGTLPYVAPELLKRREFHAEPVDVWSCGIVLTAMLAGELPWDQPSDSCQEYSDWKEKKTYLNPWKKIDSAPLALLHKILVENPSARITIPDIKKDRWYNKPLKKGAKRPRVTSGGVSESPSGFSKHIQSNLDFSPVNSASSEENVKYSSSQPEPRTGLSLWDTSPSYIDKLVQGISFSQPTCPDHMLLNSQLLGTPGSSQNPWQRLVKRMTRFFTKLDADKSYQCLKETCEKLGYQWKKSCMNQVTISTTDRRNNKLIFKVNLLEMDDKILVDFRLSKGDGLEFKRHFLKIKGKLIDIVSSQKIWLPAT
Sequence of Casein kinase I isoform gamma-1 (Homo sapiens) (Q9HCP0 whole entry, looked up, canonical isoform): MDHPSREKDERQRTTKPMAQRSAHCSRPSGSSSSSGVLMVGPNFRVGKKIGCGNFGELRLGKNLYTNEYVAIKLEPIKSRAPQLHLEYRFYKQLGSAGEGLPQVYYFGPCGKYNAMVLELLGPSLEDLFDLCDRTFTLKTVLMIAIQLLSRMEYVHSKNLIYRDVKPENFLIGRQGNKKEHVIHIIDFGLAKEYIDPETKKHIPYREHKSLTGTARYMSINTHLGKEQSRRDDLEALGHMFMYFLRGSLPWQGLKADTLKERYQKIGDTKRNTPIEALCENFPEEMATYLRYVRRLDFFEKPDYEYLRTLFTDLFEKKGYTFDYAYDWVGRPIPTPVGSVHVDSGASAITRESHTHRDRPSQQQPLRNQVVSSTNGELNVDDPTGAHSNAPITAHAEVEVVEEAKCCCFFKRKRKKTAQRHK
Sequence of Aurora kinase A (Homo sapiens) (O14965 whole entry): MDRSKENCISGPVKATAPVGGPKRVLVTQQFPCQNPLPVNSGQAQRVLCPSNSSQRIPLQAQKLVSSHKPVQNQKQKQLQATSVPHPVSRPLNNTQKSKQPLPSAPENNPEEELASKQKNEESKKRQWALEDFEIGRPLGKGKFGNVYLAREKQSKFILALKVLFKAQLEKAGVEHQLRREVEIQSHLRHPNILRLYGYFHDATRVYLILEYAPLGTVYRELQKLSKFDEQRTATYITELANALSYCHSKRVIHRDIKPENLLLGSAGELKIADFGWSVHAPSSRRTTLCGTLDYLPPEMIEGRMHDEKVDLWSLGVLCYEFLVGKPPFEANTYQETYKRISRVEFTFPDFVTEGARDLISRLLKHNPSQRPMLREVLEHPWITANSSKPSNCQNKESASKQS
Sequence of Tyrosine-protein kinase receptor TYRO3 (Homo sapiens) (Q06418 whole entry, the tested form may be a part): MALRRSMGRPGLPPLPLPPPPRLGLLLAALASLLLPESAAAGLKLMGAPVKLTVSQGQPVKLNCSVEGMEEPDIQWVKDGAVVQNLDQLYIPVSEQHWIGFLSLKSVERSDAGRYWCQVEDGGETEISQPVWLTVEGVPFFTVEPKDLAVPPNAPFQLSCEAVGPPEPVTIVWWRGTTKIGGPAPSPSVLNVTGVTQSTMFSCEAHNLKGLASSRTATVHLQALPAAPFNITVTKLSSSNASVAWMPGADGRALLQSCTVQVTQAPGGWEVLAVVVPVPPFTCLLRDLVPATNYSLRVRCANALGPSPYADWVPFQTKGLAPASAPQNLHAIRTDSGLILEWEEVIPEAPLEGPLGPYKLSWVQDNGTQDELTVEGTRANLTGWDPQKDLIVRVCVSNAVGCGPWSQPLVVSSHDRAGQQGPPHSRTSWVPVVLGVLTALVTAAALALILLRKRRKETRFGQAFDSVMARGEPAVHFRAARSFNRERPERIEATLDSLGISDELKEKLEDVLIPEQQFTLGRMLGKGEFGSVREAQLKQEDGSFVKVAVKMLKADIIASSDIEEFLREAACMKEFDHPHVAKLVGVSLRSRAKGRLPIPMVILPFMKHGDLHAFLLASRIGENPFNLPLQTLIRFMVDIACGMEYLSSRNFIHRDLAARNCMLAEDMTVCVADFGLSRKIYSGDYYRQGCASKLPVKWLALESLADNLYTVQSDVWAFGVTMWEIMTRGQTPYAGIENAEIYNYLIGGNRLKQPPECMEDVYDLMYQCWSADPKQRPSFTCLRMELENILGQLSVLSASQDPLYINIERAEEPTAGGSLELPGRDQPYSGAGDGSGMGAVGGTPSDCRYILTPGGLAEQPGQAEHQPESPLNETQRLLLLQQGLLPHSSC
Sequence of Serine/threonine-protein kinase 10 (Homo sapiens) (O94804 whole entry, looked up): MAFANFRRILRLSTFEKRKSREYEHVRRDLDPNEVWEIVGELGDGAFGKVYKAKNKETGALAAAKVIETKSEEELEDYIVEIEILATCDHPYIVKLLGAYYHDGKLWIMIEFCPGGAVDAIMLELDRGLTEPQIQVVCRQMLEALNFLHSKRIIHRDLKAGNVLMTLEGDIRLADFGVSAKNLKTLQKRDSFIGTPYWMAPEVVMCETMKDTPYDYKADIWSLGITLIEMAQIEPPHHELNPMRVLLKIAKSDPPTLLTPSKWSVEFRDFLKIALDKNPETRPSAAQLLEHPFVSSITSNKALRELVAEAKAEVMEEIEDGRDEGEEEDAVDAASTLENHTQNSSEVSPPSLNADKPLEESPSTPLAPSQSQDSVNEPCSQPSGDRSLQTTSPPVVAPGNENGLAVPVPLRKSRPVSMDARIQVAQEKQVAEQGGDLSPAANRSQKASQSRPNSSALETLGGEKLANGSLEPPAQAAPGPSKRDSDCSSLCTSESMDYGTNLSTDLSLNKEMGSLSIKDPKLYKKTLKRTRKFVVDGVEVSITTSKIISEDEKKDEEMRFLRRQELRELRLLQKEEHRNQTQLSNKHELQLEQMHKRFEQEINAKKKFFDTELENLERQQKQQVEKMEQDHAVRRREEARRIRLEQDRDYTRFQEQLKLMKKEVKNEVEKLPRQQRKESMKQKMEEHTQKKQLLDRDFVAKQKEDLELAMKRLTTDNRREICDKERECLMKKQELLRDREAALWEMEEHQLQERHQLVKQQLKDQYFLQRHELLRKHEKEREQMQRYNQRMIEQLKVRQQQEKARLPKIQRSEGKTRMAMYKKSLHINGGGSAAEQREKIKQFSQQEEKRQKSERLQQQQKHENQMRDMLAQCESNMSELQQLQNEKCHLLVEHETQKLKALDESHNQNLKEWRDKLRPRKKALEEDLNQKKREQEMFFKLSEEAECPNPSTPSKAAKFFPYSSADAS

CC1=Nc2c(F)cc(-c3nc(Nc4ccc(C5CCN(C)CC5)cn4)ncc3F)cc2C12CCCC2 [CROZBACICLIB]
inhibition [1]: -1%
inhibition [2]: 7%
inhibition [3]: 2%
inhibition [4]: -8%
inhibition [5]: 2%
AUC [6]: 37178 ng·h/g
inhibition [7]: 3%
bioavailability [8]: 75%
inhibition [9]: -3%
inhibition [10]: -7%
inhibition [11]: 5%
inhibition [12]: 0%
inhibition [13]: 68%
inhibition [14]: 87%
AUC(0-t) at 24 h [15]: 886 ng·h/mL
inhibition [16]: 6%
inhibition [17]: 12%
inhibition [18]: 0%
inhibition [19]: 4%
inhibition [20]: -5%
IC50 (CDK6/cyclin D3): 1 nM
inhibition [21]: -7%
inhibition [22]: 11%
inhibition [23]: 4%
inhibition [24]: 3%
inhibition [25]: -2%
half-life [26]: 9.1 h
inhibition [27]: 99%
inhibition [28]: 5%
inhibition [29]: 100%
inhibition [30]: 26%
